How the values were obtained:
[1] = species and route not given; cited from earlier work
Toxicity (LD50/DL50) = conditions: comparison of LD50 values

Molecule	DL50 [1]	LD50 [1]	toxicity relative to common salt (Toxicity (LD50/DL50))	toxicity relative to sugar (Toxicity (LD50/DL50))
COC(C)(C)CCC[C@H](C)C/C=C/C(C)=C/C(=O)OC(C)C [S-METHOPRENE]	above 10000 mg/kg			
common salt		3000 mg/kg		
CCOc1ccc(C(C)(C)COCc2cccc(Oc3ccccc3)c2)cc1 [ETOFENPROX]		42880 mg/kg	about 15 times less	two times less
